The results in this text go back to US20100015262A1, “NOVEL USE OF COMPOUNDS AND COMBINATIONS OF COMPOUNDS FOR IMPROVING THE PHYSICAL APPEARANCE” (priority 2006, published 2010).

Where two headings read alike, the source gives them in different places.

This test deals with C3H10T1/2 cells. The test is described as follows: Adipocyte differentiation: lipid accumulation in induced C3H10T1/2 pre-adipocytes (Bodipy stain, Cellomics ArrayScan). The settings on record: for activity at 1 µM / activity at 5 µM / activity at 25 µM / activity at 0.5 µM / activity at 2 µM: Mus musculus, C3H 10T1/2, 168 h, read-out: Cellular lipids (in % of differentiated cells); for activity at 1 µM / activity at 5 µM / activity at 25 µM / Cellular lipids (in % of differentiated cells) / activity at 0.5 µM / activity at 2 µM: 7 days; for Effect on amount of cytoplasmic lipids (in words): single substances, summary of Table 1. Format: cell-based. The method, then:
In the present invention, the effect of agents was identified by using cellular assays that measure the effect on adipocyte differentiation. Adherent pre-adipocyte cells, C3H10T1/2, were used; they were cultured in complete DMEM/FCS, i.e. Dulbecco's modified essential medium (DMEM) supplemented with penicillin/streptomycin [50 U penicillin/ml, […] streptomycin/ml] and 10% fetal calf serum (FCS) and passaged every 3-5 days. For experiments, C3H10T1/2 cells were re-suspended in DMEM/FCS without phenol red and seeded at […] cells/per well in collagen I pre-coated 24-well plates. After 2-3 days cells reached confluence. Culture medium was changed and cell differentiation was induced by adding induction medium consisting of rosiglitazone and insulin (at 50 μmol/L and 200 nmol/L, respectively). In some cases the induction medium consisted of […] dexamethasone and 500 μmol/L 3-isobutyl-1-methylxanthine. Control cells were cultured in DMEM/FCS containing only insulin. Where appropriate, substances were added to the differentiation medium at various concentrations at the time of induction, except for carotenoids which were added at the beginning of culture in order to preload the cells. The induction medium was changed every 2-3-days. Seven days after induction, cells were fixed in 60% isopropanol (40% water). After two washes in phosphate buffered saline (PBS), cells were stained with the neutral lipid stain Bodipy® 493/505 (0.5 μg/ml) and the nuclear stain Hoechst 33342 dye (2 μg/ml) for 30 minutes in the dark. After washing with PBS, the stained cells were stored at 4° C. in PBS. The extent of differentiation was quantified in a Cellomics array™ Array Scan V^Ti (http://www.cellomics.com/) using the Spot Detector BioApplication that had been optimized for detecting lipid accumulation in differentiated adipocytes. Effects of treatments were quantified using the ‘SpotCount’ and ‘SpotCountPerObject’ parameter that adequately reflects the differentiation status of the adipocytes.
The tested compounds were purchased from Sigma (PUFAs, i.e. DHA docosahexaenoic acid; EPA eicosapentaenoic acid) or Cayman Chemicals hydroxytyrosol), from DSM (hydroxytyrosol, resveratrol, genistein) or from Ehrenstorfer GmbH, Augsburg Germany (carotenoids like β-carotene, β-cryptoxanthin, lutein, lycopene, zeaxanithin); rose hip concentrate/powder was purchased from HybenVital (Denmark). The compounds to be tested were dissolved in dimethylsulfoxide (DMSO) or—in the case of carotenoids—in tetrahydrofuran (THF). Cells were preloaded with carotenoids, i.e. these were added to the culture medium when cells were seeded into test plates. Carotenoids were freshly prepared for every experimental series. Vehicle solution was added to reach a final concentration of 0.5% (v/v).
We further tested the effect of substances that were added to cultures concomitantly. The obtained values were then compared to the sum of the effect of individual substances: positive values indicate that two substances interact synergistically and thus surpass the individual effects.

Where [1] appears, read: 1 μM compound + inducers of differentiation.
The mark [2] stands for this setting: 5 μM compound + inducers of differentiation.
Setting [3] is: 25 μM compound + inducers of differentiation.
[4] abbreviates: 0.5 μM carotenoid (cells preloaded) + inducers.
[5] abbreviates: 1.0 μM carotenoid (cells preloaded) + inducers.
Where [6] appears, read: 2.0 μM carotenoid (cells preloaded) + inducers.

Turning to `OCCc1ccc(O)c(O)c1` [Hydroxytyrosol], the activity at 1 µM under setting [1] came out at 103%. In addition, the activity at 5 µM under setting [2] was 103%. Also, the activity at 25 µM under setting [3] was 68.3%.
With `CC/C=C\C/C=C\C/C=C\C/C=C\C/C=C\CCCC(=O)O` [EPA, eicosapentaenoic acid], the activity at 1 µM under setting [1] was 86.6%. Also, under setting [2], the activity at 5 µM stood at 77%. In addition, under setting [3], the activity at 25 µM came out at 74.1%.
With `CC1=C(/C=C/C(C)=C/C=C/C(C)=C/C=C/C=C(C)/C=C/C=C(C)/C=C/C2=C(C)C[C@@H](O)CC2(C)C)C(C)(C)CCC1` [β-cryptoxanthin], the “Cellular lipids (in % of differentiated cells)” value reads like this: under setting [4], 47.5%; under setting [5], 34.9%; under setting [6], 16.2%.
As to `CC1=C[C@H](O)CC(C)(C)[C@H]1/C=C/C(C)=C/C=C/C(C)=C/C=C/C=C(C)/C=C/C=C(C)/C=C/C1=C(C)C[C@@H](O)CC1(C)C` [lutein], under setting [4], the activity at 0.5 µM is 94.3%. The activity at 1 µM under setting [5] came out at 85.6%. The activity at 2 µM under setting [6] came out at 72.1%.
In the case of `Oc1ccc(C=Cc2cc(O)cc(O)c2)cc1` [Resveratrol, resveratrol], the “Effect on amount of cytoplasmic lipids (in words)” value (from here on “Effect on amount”) is “only minor effects”. Moreover, the activity at 1 µM under setting [1] was found to be 106%. The activity at 5 µM under setting [2] was 102%. In addition, the activity at 25 µM under setting [3] is 103%.
With `CC1=C(/C=C/C(C)=C/C=C/C(C)=C/C=C/C=C(C)/C=C/C=C(C)/C=C/C2=C(C)C[C@@H](O)CC2(C)C)C(C)(C)C[C@H](O)C1` [zeaxanthin], the “Cellular lipids (in % of differentiated cells)” value is recorded as 56.8% under setting [4], 39.5% under setting [5] and 43.7% under setting [6].
In the case of `CC(C)=CCC/C(C)=C/C=C/C(C)=C/C=C/C(C)=C/C=C/C=C(C)/C=C/C=C(C)/C=C/C=C(\C)CCC=C(C)C` [lycopene], under setting [4], the activity at 0.5 µM stood at 44.5%. Under setting [5], the activity at 1 µM worked out at 45.1%. Further, the activity at 2 µM under setting [6] was 24.6%.
For `CC1=C(/C=C/C(C)=C/C=C/C(C)=C/C=C/C=C(C)/C=C/C=C(C)/C=C/C2=C(C)CCCC2(C)C)C(C)(C)CCC1` [beta-carotene, β-carotene] the same measures were 93%, 66.7% and 69.4%.
Take `O=c1c(-c2ccc(O)cc2)coc2cc(O)cc(O)c12` [Genistein, genistein]: the “Effect on amount” value was “only minor effects”. Further, the activity at 1 µM under setting [1] was found to be 112%. The activity at 5 µM under setting [2] stood at 99.7%. The activity at 25 µM under setting [3] is 95.9%.
In the case of (−)-epigallocatechin gallate [EGCG], the “Effect on amount” value is reported as “only minor effects”. For the same molecule, the “Cellular lipids (in % of differentiated cells)” value under setting [1] amounted to 113.1%. In addition, under setting [2], the “Cellular lipids (in % of differentiated cells)” value is reported as 98.9%. Further, the “Cellular lipids (in % of differentiated cells)” value under setting [3] is 93.1%.
In the case of `CC/C=C\C/C=C\C/C=C\C/C=C\C/C=C\C/C=C\CCC(=O)O` [DHA, docosahexaenoic acid], the activity at 1 µM under setting [1] stood at 95.9%. In addition, the activity at 5 µM under setting [2] was 91.5%. Under setting [3], the activity at 25 µM was 66.2%.
